Experimental data taken from ChEMBL document CHEMBL6074671, “Discovery of Pyridine-2-Carboxamides Derivatives as Potent and Selective HPK1 Inhibitors for the Treatment of Cancer” (J Med Chem, 2024).
pEC50, pIC50: −log10 of the molar value.

Key:
[1] = biological target: T1, Mitogen-activated protein kinase kinase kinase kinase 1 (Homo sapiens, UniProt Q92918); test: Inhibition of human recombinant wild type N-terminal HPK1 (1 to 346 residues) infected in insect Sf21 cells using fluorescein-PKC as substrate preincubated for 10 mins followed by substrate addition and measured after 90 mins by microplate reader based analysis; assay type: single protein
T1 sequence (Q92918 whole entry, the tested form may be a part): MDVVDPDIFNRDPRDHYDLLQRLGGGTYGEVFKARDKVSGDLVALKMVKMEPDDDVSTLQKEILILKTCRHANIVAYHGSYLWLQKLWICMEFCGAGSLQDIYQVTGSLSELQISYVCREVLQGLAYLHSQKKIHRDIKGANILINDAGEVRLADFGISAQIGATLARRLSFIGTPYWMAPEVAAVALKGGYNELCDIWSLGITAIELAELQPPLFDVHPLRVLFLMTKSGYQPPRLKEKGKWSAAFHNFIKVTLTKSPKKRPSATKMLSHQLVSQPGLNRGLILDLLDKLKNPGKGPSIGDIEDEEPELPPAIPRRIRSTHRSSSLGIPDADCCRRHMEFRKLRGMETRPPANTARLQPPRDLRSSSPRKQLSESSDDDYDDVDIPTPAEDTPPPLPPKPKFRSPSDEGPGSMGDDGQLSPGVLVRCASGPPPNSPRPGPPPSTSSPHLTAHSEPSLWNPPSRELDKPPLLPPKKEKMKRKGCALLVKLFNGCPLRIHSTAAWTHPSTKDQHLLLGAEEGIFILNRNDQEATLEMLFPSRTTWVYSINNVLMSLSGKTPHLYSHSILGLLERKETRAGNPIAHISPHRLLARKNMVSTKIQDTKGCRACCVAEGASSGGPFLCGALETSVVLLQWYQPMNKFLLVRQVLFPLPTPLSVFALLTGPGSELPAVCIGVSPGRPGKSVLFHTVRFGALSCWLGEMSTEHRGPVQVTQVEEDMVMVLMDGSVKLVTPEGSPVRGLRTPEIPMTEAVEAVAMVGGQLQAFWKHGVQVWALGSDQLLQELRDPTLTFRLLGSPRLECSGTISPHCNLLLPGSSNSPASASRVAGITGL

[2] = biological target: T1, Mitogen-activated protein kinase kinase kinase kinase 1; test: Inhibition of HPK1 in human PBMC cells assessed as IL-2 level pretreated for 4 hrs followed by anti-CD3/CD28 stimulation for 20 mins by HTRF method; assay type: cell-based
[3] = biological target: T2, Mitogen-activated protein kinase kinase kinase kinase 3 (Homo sapiens, UniProt Q8IVH8); test: Inhibition of GLK (unknown origin)
T2 sequence (Q8IVH8 whole entry): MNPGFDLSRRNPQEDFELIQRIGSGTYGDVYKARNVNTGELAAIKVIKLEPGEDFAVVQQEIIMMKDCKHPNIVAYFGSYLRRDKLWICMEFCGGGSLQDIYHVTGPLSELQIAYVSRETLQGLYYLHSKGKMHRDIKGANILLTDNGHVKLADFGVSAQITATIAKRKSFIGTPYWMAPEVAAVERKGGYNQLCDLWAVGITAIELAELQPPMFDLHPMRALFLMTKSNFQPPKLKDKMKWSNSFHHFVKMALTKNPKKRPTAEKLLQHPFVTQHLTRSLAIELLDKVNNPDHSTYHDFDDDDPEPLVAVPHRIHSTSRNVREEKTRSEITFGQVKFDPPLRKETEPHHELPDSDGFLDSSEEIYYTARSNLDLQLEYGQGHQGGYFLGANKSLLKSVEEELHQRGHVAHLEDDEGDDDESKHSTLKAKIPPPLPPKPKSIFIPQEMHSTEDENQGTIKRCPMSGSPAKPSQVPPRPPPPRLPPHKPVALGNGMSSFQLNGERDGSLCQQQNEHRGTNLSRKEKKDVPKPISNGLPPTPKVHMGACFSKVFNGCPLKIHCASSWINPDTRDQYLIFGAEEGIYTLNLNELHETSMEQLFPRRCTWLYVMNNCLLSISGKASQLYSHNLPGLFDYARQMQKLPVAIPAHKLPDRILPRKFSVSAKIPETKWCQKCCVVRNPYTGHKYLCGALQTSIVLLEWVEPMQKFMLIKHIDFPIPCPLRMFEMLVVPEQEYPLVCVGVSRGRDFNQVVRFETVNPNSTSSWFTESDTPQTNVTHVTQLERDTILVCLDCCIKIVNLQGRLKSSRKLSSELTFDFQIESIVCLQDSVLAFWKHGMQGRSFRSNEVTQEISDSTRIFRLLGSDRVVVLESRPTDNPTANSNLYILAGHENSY

[4] = Clearance in Balb/c mouse plasma administered as iv dose; assay type: ADME, organism-based
[5] = Dose normalized AUC (0 to 24 hrs) in Balb/c mouse administered as po dose; assay type: ADME, organism-based; conditions: in vivo
[6] = Half life in Balb/c mouse administered as po dose; assay type: ADME, organism-based; conditions: in vivo
[7] = Oral bioavailability in Balb/c mouse; assay type: ADME, organism-based; conditions: in vivo
[8] = Volume of distribution in Balb/c mouse administered as iv dose; assay type: ADME, organism-based; conditions: in vivo
in vivo [9] = conditions: Balb/c, mouse, iv, 1 mg/kg
Description: Volume of distribution in Balb/c mouse at 1 mg/kg, iv

[10] = Half life in Balb/c mouse at 10 mg/kg, po; assay type: ADME, organism-based; conditions: in vivo
in vivo [11] = conditions: Beagle, dog, po, 2 mg/kg
Description: Half life in Beagle dog at 2 mg/kg, po

in vivo [12] = conditions: Beagle, dog, po, 2 mg/kg; remark: listed apart in the source
[13] = Oral bioavailability n Sprague-Dawley rat at 10 mg/kg; assay type: ADME, organism-based; conditions: in vivo
in vivo [14] = conditions: Beagle, dog, plasma, iv, 1 mg/kg
Description: Clearance in Beagle dog plasma at 1 mg/kg, iv

[15] = Half life in Sprague-Dawley rat at 10 mg/kg, po; assay type: ADME, organism-based; conditions: in vivo
[16] = Oral bioavailability in Balb/c mouse at 10 mg/kg; assay type: ADME, organism-based; conditions: in vivo
in vivo [17] = conditions: Sprague-Dawley, rat, plasma, iv, 1 mg/kg
Description: Clearance in Sprague-Dawley rat plasma at 1 mg/kg, iv

[18] = dog, in vivo, po, 2 mg/kg
[19] = Dose normalized AUC (0 to 24 hrs) in Balb/c mouse at 10 mg/kg, po; assay type: ADME, organism-based; conditions: in vivo
in vivo [20] = conditions: Balb/c, mouse, plasma, iv, 1 mg/kg
Description: Clearance in Balb/c mouse plasma at 1 mg/kg, iv

in vivo [21] = conditions: Sprague-Dawley, rat, iv, 1 mg/kg
Description: Volume of distribution in Sprague-Dawley rat at 1 mg/kg, iv

in vivo [22] = conditions: Beagle, dog, iv, 1 mg/kg
Description: Volume of distribution in Beagle dog at 1 mg/kg, iv

[23] = Dose normalized AUC (0 to 24 hrs) in Sprague-Dawley rat at 10 mg/kg, po; assay type: ADME, organism-based; conditions: in vivo
[24] = Effect on IFN-gamma secretion in human T cells by ELISA method; assay type: functional, cell-based; conditions: T-cell
[25] = Effect on IL-2 secretion in human T cells by ELISA method; assay type: functional, cell-based; conditions: T-cell
[26] = Inhibition of pSLP76 in human PBMC cells incubated for 4 hrs by HTRF method; assay type: cell-based
in vivo [27] = conditions: Sprague-Dawley, rat, po
Description: Half life in Sprague-Dawley rat administered as po dose

in vivo [28] = conditions: Sprague-Dawley, rat, po; remark: listed apart in the source
Description: Oral bioavailability in Sprague-Dawley rat

in vivo [29] = conditions: Sprague-Dawley, rat, iv
Description: Volume of distribution in Sprague-Dawley rat administered as iv dose

in vivo [30] = conditions: Sprague-Dawley, rat, plasma, iv
Description: Clearance in Sprague-Dawley rat plasma administered as iv dose

With COc1cc(Nc2ccc3c(n2)CN(C)C32CCCC2)c(C(N)=O)nc1-c1cccc2c1ncn2C as the molecule, how does the pIC50 [1] read?
Its pIC50 is greater than 9.29.

And the pEC50 [2]?
Its pEC50 is 6.83.

What about the pIC50 [3] of the same molecule?
Its pIC50 is 6.79.

With CCN1Cc2nc(Nc3cc(OC)c(-c4cccc5c4ncn5C)nc3C(N)=O)ccc2C12CCOCC2 as the molecule, how does the pIC50 [1] read?
Its pIC50 is greater than 9.29.

What about the pEC50 [2] of the same molecule?
The pEC50 was 6.78.

What about the pIC50 [3] of the same molecule?
Its pIC50 is 6.62.

With COc1cc(Nc2ccc3c(n2)CN(C)C32CCOCC2)c(C(N)=O)nc1-c1ccnc2c1ccn2C as the molecule, how does the pIC50 [1] read?
The pIC50 was greater than 9.29.

What about the pIC50 [3] of the same molecule?
The pIC50 was 7.57.

With CN1Cc2nc(Nc3cc(OC(F)F)c(-c4cccc5c4ncn5C)nc3C(N)=O)ccc2C12CCOCC2 as the molecule, how does the pIC50 [1] read?
Its pIC50 is greater than 9.29.

And the pEC50 [2]?
Its pEC50 is 7.26.

What about the pIC50 [3] of the same molecule?
The pIC50 was 6.82.

What does the source list for CN1Cc2nc(Nc3ccc(C4=CCCC(NC(=O)c5ccccc5)C4)nc3C(N)=O)ccc2C12CCOCC2 (stereo unspecified)?
pIC50 [1]: 9.19; clearance [4]: 23.7 mL/min/kg; AUC/dose [5]: 273.3 ng·h/mL; half-life [6]: 0.93 h; bioavailability [7]: 38.6%; Vd [8]: 1.08 L/kg; pIC50 [3]: 7.55

With CN1Cc2nc(Nc3cc(C4CC4)c(-c4cccc5c4ncn5C)nc3C(N)=O)ccc2C12CCN(C1COC1)CC2 as the molecule, how does the pIC50 [1] read?
The pIC50 was greater than 9.29.

And the Vd (in vivo [9])?
The Vd was 1.08 L/kg.

And the half-life [10]?
Its half-life is 4.33 h.

What about the half-life (in vivo [11]) of the same molecule?
The half-life was 6.06 h.

What about the bioavailability (in vivo [12]) of the same molecule?
Its bioavailability is 26.3%.

What about the bioavailability [13] of the same molecule?
Its bioavailability is 54.7%.

And the clearance (in vivo [14])?
The clearance was 14.7 mL/min/kg.

What about the half-life [15] of the same molecule?
Its half-life is 2.61 h.

What about the bioavailability [16] of the same molecule?
Its bioavailability is 24.6%.

What about the pEC50 [2] of the same molecule?
Its pEC50 is 7.49.

What about the clearance (in vivo [17]) of the same molecule?
The clearance was 19.8 mL/min/kg.

What about the AUC/dose [18] of the same molecule?
The AUC/dose was 289.2 ng·h/mL.

And the AUC/dose [19]?
The AUC/dose was 308.2 ng·h/mL.

What about the clearance (in vivo [20]) of the same molecule?
Its clearance is 13.2 mL/min/kg.

What about the Vd (in vivo [21]) of the same molecule?
Its Vd is 2.25 L/kg.

And the Vd (in vivo [22])?
The Vd was 6 L/kg.

What about the pIC50 [3] of the same molecule?
The pIC50 was 6.94.

What about the AUC/dose [23] of the same molecule?
The AUC/dose was 4502 ng·h/mL.

What does the source list for CN(C)Cc1nc(Nc2ccc(-c3cnc4cc(F)ccn34)c3c2C(=O)NC3)ccc1C1CCOCC1?
pEC50 [24]: 7.65; pEC50 [25]: 7.45; pIC50 [26]: 7.85

With COc1cc(Nc2ccc3c(n2)CN(C)C32CCOCC2)c(C(N)=O)nc1-c1cncc2c1ncn2C as the molecule, how does the pIC50 [1] read?
Its pIC50 is greater than 9.29.

What about the half-life (in vivo [27]) of the same molecule?
The half-life was 1.22 h.

And the bioavailability (in vivo [28])?
Its bioavailability is 24.3%.

What about the Vd (in vivo [29]) of the same molecule?
Its Vd is 1.75 L/kg.

What about the pEC50 [2] of the same molecule?
The pEC50 was 8.00.

And the pIC50 [3]?
Its pIC50 is 6.62.

What about the clearance (in vivo [30]) of the same molecule?
Its clearance is 32.6 mL/min/kg.

Which results are given for COc1cc(Nc2ccc3c(n2)CN(C)C32CCOCC2)c(C(N)=O)nc1-c1cncc2c1ccn2C?
pIC50 [1]: > 9.29; pIC50 [3]: 7.02

With COc1cc(Nc2ccc3c(n2)CN(C)C32CCOCC2)c(C(N)=O)nc1-c1cccc2c1ncn2C(F)F as the molecule, how does the pIC50 [1] read?
The pIC50 was greater than 9.29.

And the pEC50 [2]?
Its pEC50 is 6.99.

What about the pIC50 [3] of the same molecule?
Its pIC50 is 6.49.
